Assay results taken from patent US6649605B2, “Treatment of tension-type headaches with NMDA receptor antagonists” (Head Explorer A/S, priority 1996, dated 2003).
Entries after “also recorded” stand apart in the source; their conditions may differ.

Assays:
[1] = test system: patients with chronic tension-type headache; experiment: Open labeled pilot study of prophylactic Gabapentin; assay type: in vivo, human
Excerpt: Three patients with a diagnosis of chronic tension-type headache according to the International Headache society (Headache Classification Committee 1988) were recruited from the outpatient headache clinic at Glostrup Hospital. The patients were males with a mean age of 42 years (range. 35-49). The mean life time duration of chronic tension-type headache was 16 years (range 7-21). […] Exclusion criteria were: daily major medication (including prophylactic headache therapy); abuse of analgesics or alcohol; serious somatic or psychiatric diseases including depression.
Using an open labeled design, patients fulfilled a diagnostic headache diary during at least 4 weeks run-in period to ensure the diagnostic criteria. Thereafter, the patients received Gabapentin (Neurontin®) tablets, initially 300 mg (one tablet) per day on day one, increasing with 300 mg (1 tablet) per day to 900 mg (3 tablets) on day 3. The treatment period lasted […], and during this period patients were asked to continue with headache diaries, and record headache intensity, frequency, duration, any medication taken and any possible adverse events. At a follow, up visit at day 29-32, diaries were collected and any adverse events and evaluation of the treatment were recorded. Duo to the low number of patients, no statistical analysis were done. The primary efficacy parameters were headache intensity frequency and duration, and the mean values from the run-in period were compared to those obtained during the treatment period, […]

GABA A = details: cited from earlier work
GABA B = GABA B (Homo sapiens, UniProt Q9UBS5); details: cited from earlier work
Sequence of GABA B (Q9UBS5 15-961 limits assumed): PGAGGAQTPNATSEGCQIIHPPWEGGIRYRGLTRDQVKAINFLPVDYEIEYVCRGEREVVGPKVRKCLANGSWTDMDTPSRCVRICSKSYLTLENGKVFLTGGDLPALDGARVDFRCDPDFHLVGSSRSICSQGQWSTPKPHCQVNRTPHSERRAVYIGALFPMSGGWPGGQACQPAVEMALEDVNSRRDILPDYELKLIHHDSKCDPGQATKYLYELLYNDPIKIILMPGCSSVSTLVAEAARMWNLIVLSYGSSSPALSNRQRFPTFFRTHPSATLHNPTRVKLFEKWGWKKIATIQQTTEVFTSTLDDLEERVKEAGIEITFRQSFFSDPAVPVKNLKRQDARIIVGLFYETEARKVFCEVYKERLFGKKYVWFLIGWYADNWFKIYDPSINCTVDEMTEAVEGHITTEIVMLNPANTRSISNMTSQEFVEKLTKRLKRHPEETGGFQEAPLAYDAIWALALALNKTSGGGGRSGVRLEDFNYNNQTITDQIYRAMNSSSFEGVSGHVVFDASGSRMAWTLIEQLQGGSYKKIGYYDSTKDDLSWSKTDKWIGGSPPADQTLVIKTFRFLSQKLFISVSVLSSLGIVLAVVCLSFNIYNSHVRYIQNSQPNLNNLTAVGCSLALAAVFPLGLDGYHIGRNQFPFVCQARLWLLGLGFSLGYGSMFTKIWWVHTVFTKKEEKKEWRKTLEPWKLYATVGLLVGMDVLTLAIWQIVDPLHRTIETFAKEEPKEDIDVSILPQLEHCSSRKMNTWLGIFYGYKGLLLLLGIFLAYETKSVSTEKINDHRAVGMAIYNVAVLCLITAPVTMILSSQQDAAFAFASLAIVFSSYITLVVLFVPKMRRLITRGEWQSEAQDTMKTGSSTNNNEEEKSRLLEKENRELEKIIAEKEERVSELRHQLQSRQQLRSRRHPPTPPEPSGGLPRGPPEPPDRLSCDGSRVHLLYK
Sequence of GABA B (O75899 42-941 partner): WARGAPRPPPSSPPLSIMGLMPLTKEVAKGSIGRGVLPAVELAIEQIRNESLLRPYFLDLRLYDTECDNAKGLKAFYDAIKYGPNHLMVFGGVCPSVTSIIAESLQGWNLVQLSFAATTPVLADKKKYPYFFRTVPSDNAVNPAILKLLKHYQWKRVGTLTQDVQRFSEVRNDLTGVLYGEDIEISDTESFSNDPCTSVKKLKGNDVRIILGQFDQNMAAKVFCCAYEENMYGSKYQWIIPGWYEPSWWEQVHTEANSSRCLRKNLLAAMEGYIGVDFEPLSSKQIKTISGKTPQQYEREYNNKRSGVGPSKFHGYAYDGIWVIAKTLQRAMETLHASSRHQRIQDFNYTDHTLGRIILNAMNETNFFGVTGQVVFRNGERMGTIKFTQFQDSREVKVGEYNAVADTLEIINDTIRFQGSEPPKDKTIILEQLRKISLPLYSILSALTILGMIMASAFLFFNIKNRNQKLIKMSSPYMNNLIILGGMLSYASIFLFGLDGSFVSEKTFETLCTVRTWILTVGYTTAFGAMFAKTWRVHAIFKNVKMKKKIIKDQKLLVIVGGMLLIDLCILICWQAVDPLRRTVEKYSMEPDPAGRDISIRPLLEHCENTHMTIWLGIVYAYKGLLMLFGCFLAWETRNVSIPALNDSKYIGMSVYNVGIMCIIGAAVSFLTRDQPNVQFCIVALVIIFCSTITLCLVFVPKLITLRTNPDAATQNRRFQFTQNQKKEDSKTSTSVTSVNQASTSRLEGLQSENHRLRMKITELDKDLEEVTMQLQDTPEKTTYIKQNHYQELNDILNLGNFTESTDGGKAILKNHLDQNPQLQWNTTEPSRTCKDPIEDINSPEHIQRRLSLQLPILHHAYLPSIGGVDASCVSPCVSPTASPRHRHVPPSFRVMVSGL

[2] = test system: alpha-2-subunit of a calcium channel; details: cited from earlier work
[3] = test system: patients with chronic tension-type headache; experiment: Open labeled pilot study of prophylactic Dextromethorphan; assay type: in vivo, human
Excerpt: Five patients with a diagnosis of chronic tension-type headache according to the International Headache Society (Headache Classification Committee 1988) were recruited from the outpatient headache clinic at Glostrup Hospital. There were 2 males and 3 females, and the mean age was 45.4 years (range 39-48). The mean life time duration of chronic tension-type headache was 12.2 years (range 4-25). One patient had coexisting but infrequent migraine. Exclusion criteria were; daily major medication (including prophylactic headache therapy); abuse of analgesics or alcohol; serious somatic or psychiatric diseases including depression.
Using an open labeled design, patients fulfilled a diagnostic headache diary during at least 4 weeks run-in period to ensure the diagnostic criteria. Thereafter, the patients received Dextromethorphan (Dexofan®) tablets at 30 mg each, three times per day. The treatment period lasted 4 weeks, and during this period patients were asked to continue Faith headache diaries: and record headache intensity, frequency, duration, any medication taken and any possible adverse events. At a follow up visit at day 29-32, diaries were collected and possible adverse events and evaluation of the treatment were recorded. Due to the restricted number of patients, no statistical analysis were done. The efficacy parameters were headache intensity, frequency and duration, and intake of simple analgesics. Mean values from the run-in period were compared to those obtained during the treatment period.

human volunteers = details: cited from earlier work
tension-type headache = details: literature reports; cited from earlier work
migraine = details: literature reports; cited from earlier work
[4] = 0-10 VAS intensity scale, during active treatment, mean
[5] = 0-10 VAS intensity scale, run-in period, mean
[6] = open labeled, no statistical analysis

## NCC1(CC(=O)O)CCCCC1 [Gabapentin]
[1]; [4]
  Headache intensity, active treatment: 3.6
[1]; [5]
  Headache intensity, run-in period: 5.5
[1]; 3 patients
  Effect in the individual patients: One patient had excellent effect of Gabapentin with complete relief of the headache after 2 days treatment; also recorded: another patient had a moderate effect on headache intensity and frequency; also recorded: the third patient had no significant effect on any of efficacy parameters
  Side effects: Those two subjects with good or excellent effect reported no side effects; also recorded: sedation, vertigo and slight nausea
[1]; active treatment
  Mean daily intake of analgesics, active treatment: 0.3 dose per day
[1]; active treatment period
  Frequency of headache, active treatment: 13 days per 4 weeks
[1]; [6]
  Overall prophylactic effect: positive prophylactic effect
[1]; run-in period
  Frequency of headache, run-in period: 23.5 days per 4 weeks
  Mean daily intake of analgesics, run-in period: 1.1 dose per day
[1]; treatment vs run-in period
  Decrease of frequency of headache: 45%
  Decrease of mean daily intake of analgesics: 72%
  Reduction of duration of the individual headache episode: 8%
[1]; treatment vs run-in period, up to 900 mg per day, 3 patients
  Decrease of headache intensity: 35%
GABA A
  Affinity for GABA A: fail to show affinity
GABA B
  Affinity for GABA B: fail to show affinity
[2]
  Binding affinity to the alpha-2-subunit of a calcium channel: showed binding affinity

## COc1ccc2c(c1)[C@]13CCCC[C@@H]1[C@H](C2)N(C)CC3 [Dextromethorphan]
[3]; [4]
  Headache intensity, active treatment: 3.6
[3]; [5]
  Headache intensity, run-in period: 4.4
[3]; 5 patients
  Effect in the individual patients: Two patients reported a marked effect with considerable relief of headache intensity and duration within very few days of treatment; also recorded: one patient had a slight relief of headache intensity; also recorded: two patients reported no effect at all
  Side effects: Four patients reported no side effects; also recorded: marked side effects with sedation was reported in one patient
[3]; active treatment
  Frequency of headache, active treatment: 27 days per 4 weeks period
  Mean intake of analgesics, active treatment: 0.5 dose per day
[3]; [6]
  Overall prophylactic effect: positive prophylactic effect
[3]; run-in
  Frequency of headache, run-in period: 28 days per 4 weeks period
[3]; run-in period
  Mean intake of analgesics, run-in period: 1.8 dose per day
[3]; treatment vs run-in period
  Decrease of frequency of headache: 4%
  Decrease of intake of analgesics: 72%
  Reduction of duration of the individual headache episode: 11%
[3]; treatment vs run-in period, 30 mg three times per day, 4 weeks, 5 patients
  Reduction of headache intensity: 18%
Human volunteers
  After sensation induced by repetitive stimuli: reduce the after sensation

## CCOC(=O)Nc1ccc(NCc2ccc(F)cc2)nc1N [Flupirtin, ethyl 2-amino-6-(4-fluorobenylamino)-3-pyridylcarbamate]
tension-type headache
  Effect in tension-type headache: positive effects

## CNS(=O)(=O)Cc1ccc2[nH]cc(CCN(C)C)c2c1 [sumatriptan]
tension-type headache
  Effect in tension-type headache: not effective to a clinically relevant extent
migraine
  Effect in migraine: highly effective
